From patent US20030186334A1, “KTS-disintegrins” (Temple University - Of the Commonwealth System of Higher …, priority 2001, published 2003)

What was measured:
[1] = target: T1, α1β1 integrin (Homo sapiens, UniProt P05556+P56199); assay: adhesion of P1E6 blocked MV3 cells to immobilized collagen IV; format: cell-based; conditions: only α1β1 mediates adhesion
T1 construct: expressed in transfected cells; host or cells: α1K562 cells
Procedure: The α1β1 integrin specific inhibitory effect of obtustatin was confirmed using human melanoma MV3 cells. MV3 cells express both the α1β1 and α2β1 integrins. MV3 cells adhere strongly to collagen IV through α1β1 and α2β1 integrin-mediated interactions.
Collagen IV (0.2 μg/well) in 0.02 M acetic acid was immobilized overnight at 4° C. on a 96-well plate. Plates were then blocked with 1% (w/v) BSA (bovine serum albumin) in Hank's Balanced Salt Solution (HBSS) containing 3 mM Mg^2+ at room temperature for 1-2 hours to prevent cells from non-specifically binding to the plates. α1K562 cells were labeled by incubation with 12.5 μM 5-chloromethylfluorescein diacetete (CMFDA) in HBSS for 15 minutes at 37° C. CMFDA labeled MV3 cells were then pelleted, washed and resuspended in HBSS buffer containing 3mM Mg^2+ and 1% (w/v) BSA. 1×10^5 cells were then added to each well in the presence (10 μg/ml) or absence of the α1 integrin subunit specific AJH10 mAb and α2 integrin subunit specific P1E6 mAb as indicated in FIG. 5. Obtustatin was added at the concentrations indicated in FIG. 5 simultaneously with the mAbs. The plates were then incubated at 37° C. for 30 minutes and washed three times with HBSS containing 3 mM Mg^2+ and 1% (w/v) BSA to remove unbound cells. […] Fluorescent CMFDA released by lysis of adherent cells in a given well was read using a Cytofluor 2350 fluorescence plate reader.

[2] = test system: melanoma cells (HS.939T); assay: BrdU incorporation growth assay in HS.939T melanoma cells; format: cell-based, human; conditions: 2 μM
Procedure: Human microvascular endothelial cells (HMVECs) and melanoma cells (HS.939T) were cultured and treated with vehicle (control), 2 μM obtustatin, 2 μM echistatin or 50 ng/ml TNF-α. Growth of the cells was determined by a standard BrdU incorporation assay (Chemicon), according to the manufacturer's instructions.

[3] = test system: MV3 human melanoma cells; assay: MV3 melanoma cell migration through HUVEC layer; format: cell-based; conditions: 3 hours
Procedure: Cell migration through an endothelial cell layer is an important event in cancer cell metastasis. The effect of obtustatin on melanoma cell migration through an endothelial cell layer in vitro was evaluated as follows. Human umbilical vein endothelial cells (HUVECs) of 3-7 passages were purchased from Cascade Biologics (Portland, Oreg.). The HUVECs were seeded into 8.0 μm pore size FALCON® HTS FluoroBlok™ inserts (Becton Dickinson, Franklin Lakes, N.J.) in serum-containing endothelial cell growth medium. The inserts were placed into the wells of a 24-well plate (Becton-Dickinson), and the HUVECs allowed to grow to confluence on the insert over 72 hours. The interior of the FluoroBlok™ inserts is referred to below as the “upper chamber,” and the interior of the well in which the insert sits is referred to as the “lower chamber.”
Twenty-four hours before the assay, the upper chambers were washed with serum-free medium, and new medium containing TNF-α (3 ng/ml) was added to activate the HUVECs. […] After 3 hours incubation at 37° C. in 5% CO2, the extent of MV3 migration into the bottom chambers was assessed using a bottom-reading Cytofluor 2350 (Millipore Inc., Bedford Mass.). The amount of fluorescence in the lower chambers is directly related to the number of MV3 cells which have migrated through the HUVEC layer from the upper chamber. […]

[4] = test system: Lewis lung carcinoma; assay: Lewis lung carcinoma growth in syngeneic mouse model; format: in vivo, C57BL/6 mice; conditions: 5 mg/kg intraperitoneally once daily for eight days
Procedure: Lewis lung carcinoma cells (1×10^6) were injected under the skin of the C57BL/6 mice (Tacoma Inc., Germantown, N.Y.), and tumors were allowed to grow for one week. The average tumor size after one week of growth was approximately 0.08 cm^3. The one-week time-point was called “day 0.” Two treatment groups of four mice each were injected intraperitoneally once daily with either 5 mg/kg obtustatin or 5 mg/kg echistatin beginning on day 0 for a total of eight days. A control group of four mice received only PBS. Tumor volume was measured daily using the formula length×width^2×0.52.

[5] = target: T1, α1β1 integrin; assay: adhesion of HS.939T cells to collagen IV; format: cell-based; conditions: α1β1, Coll IV
[6] = test system: human melanoma cells (MV3); assay: apoptosis by caspase-3 levels in melanoma MV3 cells; format: cell-based
Procedure: The mechanisms of the cancer-suppressing effect observed for obtustatin were investigated as follows. Dermal microvascular endothelial cells (EC) and human melanoma cells (MV3) were cultured and exposed to TNF-α, vincristine and obtustatin. (TNF-α and vincristine are compounds which induce cell death by apoptosis in both normal and cancerous cells.) Control cells received only vehicle. The extent of apoptosis was measured by determining caspase-3 levels.

T1 sequence (P56199 29-1179): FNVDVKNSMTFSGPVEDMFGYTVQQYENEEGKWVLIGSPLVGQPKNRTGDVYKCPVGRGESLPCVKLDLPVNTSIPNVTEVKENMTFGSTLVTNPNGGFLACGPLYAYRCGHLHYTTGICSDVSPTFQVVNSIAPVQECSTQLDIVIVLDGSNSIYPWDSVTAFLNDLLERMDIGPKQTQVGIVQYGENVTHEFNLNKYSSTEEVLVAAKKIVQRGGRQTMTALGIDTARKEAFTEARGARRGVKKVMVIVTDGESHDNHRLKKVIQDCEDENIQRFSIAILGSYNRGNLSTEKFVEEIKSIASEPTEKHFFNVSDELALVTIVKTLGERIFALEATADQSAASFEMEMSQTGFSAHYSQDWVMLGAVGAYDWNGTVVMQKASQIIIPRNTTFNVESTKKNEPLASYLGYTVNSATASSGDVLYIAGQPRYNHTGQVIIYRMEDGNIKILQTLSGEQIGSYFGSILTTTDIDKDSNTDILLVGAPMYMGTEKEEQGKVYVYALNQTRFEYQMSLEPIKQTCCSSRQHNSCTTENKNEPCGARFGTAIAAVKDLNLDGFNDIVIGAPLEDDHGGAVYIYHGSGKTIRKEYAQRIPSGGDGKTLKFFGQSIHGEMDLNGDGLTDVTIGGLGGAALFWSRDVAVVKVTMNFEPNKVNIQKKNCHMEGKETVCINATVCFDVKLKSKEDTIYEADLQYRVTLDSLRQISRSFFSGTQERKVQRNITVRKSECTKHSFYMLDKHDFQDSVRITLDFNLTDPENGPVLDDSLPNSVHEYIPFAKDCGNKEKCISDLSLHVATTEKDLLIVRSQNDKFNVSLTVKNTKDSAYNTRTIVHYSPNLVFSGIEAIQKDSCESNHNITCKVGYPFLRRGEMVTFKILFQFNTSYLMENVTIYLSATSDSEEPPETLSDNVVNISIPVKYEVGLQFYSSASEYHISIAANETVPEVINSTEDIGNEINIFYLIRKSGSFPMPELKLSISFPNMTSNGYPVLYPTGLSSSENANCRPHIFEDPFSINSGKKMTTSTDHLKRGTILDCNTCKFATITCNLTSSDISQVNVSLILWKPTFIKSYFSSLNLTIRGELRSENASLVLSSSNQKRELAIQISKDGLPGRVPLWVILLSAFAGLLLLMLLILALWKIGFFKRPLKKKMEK
T1 sequence (P05556 21-798): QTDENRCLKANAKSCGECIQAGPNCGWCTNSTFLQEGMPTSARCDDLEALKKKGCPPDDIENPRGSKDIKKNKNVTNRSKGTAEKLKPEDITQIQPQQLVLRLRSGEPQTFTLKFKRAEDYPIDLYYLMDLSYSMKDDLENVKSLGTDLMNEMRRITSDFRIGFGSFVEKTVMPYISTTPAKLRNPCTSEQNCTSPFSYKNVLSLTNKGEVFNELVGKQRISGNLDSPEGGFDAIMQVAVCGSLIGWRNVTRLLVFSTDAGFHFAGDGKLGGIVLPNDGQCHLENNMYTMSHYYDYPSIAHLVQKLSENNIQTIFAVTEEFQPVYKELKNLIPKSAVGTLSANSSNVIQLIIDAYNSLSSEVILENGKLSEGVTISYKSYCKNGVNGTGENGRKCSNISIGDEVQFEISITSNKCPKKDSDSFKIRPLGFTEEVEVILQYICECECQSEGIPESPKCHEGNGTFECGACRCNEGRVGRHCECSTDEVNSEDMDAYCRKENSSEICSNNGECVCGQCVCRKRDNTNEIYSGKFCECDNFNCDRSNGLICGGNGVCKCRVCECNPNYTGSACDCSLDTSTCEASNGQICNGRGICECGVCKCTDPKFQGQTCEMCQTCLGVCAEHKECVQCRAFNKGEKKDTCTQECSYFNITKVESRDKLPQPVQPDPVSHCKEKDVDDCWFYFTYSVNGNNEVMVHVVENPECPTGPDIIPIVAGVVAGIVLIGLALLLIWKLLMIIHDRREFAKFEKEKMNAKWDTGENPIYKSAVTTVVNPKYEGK

Substance: Obtustatin (CTTGPCCRQCKLKPAGTTCWKTSLTSHYCTGKSCDCPLYPG)
- inhibition of adhesion of MV3 cells to collagen IV [1]: inhibited by significantly lower obtustatin concentrations
- growth (BrdU incorporation) [2]: not the HS.939T melanoma cells
- migration of MV3 cells through the HUVEC layer ([3]; collagen IV or FGF as chemoattractants, 0 to 500 nM): inhibited migration
- concentration giving essentially complete inhibition of MV3 cell migration ([3]; through HUVEC layer): above 200 nM
- inhibition of tumor development (tumor volume) [4]: by about half
- IC50 [5]: 0.1 nM
- apoptosis (caspase-3) [6]: not in MV3 cells
